Laboratory results as given in US20070266957A1 (priority 2004, published 2007).
Like-named read-outs stand apart in the source and are kept apart here.

System: influenza virus (H3N2 type human vaccine New Caledonia strain)
Type: cell-based

In the case of hinokitiol copper complex, the anti-influenza virus activity was “ineffective”, the FFU (concentration 0.8 μg/ml) was 280 FFU and the FFU (concentration 4 μg/ml) was “Exfoliation”. The FFU (concentration 20 μg/ml) was “Exfoliation” and the FFU (concentration 100 μg/ml) was “Exfoliation”.
